Read-outs that look alike come from different tables or passages of the source. *1 amine or outer side, *2 acyl side, *3 side chain or, on linkers, in order; H or OH if unused. Where a SMILES comes first, the peptide text is derived from it. Side-chain parts run from the residue outwards. [ ]: non-standard residue; d: D form. The star is where a group is joined. αMePhe(2-F) = C[C@](N)(Cc1ccccc1F)C(=O)O; γGlu = O=C(O)[C@H](CCC(=O)[*:2])N[*:1]; C14 diacid = O=C(O)CCCCCCCCCCCCC(=O)*; αMeY = C[C@](N)(Cc1ccc(O)cc1)C(=O)O; αMeL = CC(C)C[C@](C)(N)C(=O)O; Orn = NCCC[C@H](N)C(=O)O; AEEA = NCCOCCOCC(=O)O; Aib = CC(C)(N)C(=O)O
What was measured:
Type in all cases: cell-based
hGIPR = target: T1, hGIPR (Homo sapiens, UniProt P48546); test: Functional cAMP formation (HTRF) in HEK-293 clonal cells expressing hGIPR, 0.1% bovine casein, without or with 1.0% human serum albumin; settings: for EC50: cAMP, 0.1% bovine casein (no human serum albumin), geometric mean
T1 construct: expressed in transfected cells
T1 sequence (P48546 22-466): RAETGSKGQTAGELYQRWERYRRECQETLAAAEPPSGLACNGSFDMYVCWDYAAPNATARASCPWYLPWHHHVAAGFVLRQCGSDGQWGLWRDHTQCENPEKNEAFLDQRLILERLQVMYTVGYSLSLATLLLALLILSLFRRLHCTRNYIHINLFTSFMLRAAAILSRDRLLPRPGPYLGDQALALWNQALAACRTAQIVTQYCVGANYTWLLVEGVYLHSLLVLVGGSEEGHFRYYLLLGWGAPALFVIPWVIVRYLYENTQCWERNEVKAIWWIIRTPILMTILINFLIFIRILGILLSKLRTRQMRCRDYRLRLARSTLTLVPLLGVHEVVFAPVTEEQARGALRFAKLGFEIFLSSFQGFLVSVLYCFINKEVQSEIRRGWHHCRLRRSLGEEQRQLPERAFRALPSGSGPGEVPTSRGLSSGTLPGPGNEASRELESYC
In short: (§1)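 Readings of the HTRF 665/620 nm ratio, which falls as cAMP rises, were converted to nM cAMP using a standard curve after 30 min peptide exposure at 37° C.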

hGCGR = target: T2, hGCGR (Homo sapiens, UniProt P47871); test: Functional cAMP formation (HTRF) in HEK-293 clonal cells expressing hGCGR, 0.1% bovine casein, without or with 1.0% human serum albumin
T2 construct: expressed in transfected cells
In short: as §1

hGLP-1R = hGLP-1R (Homo sapiens, UniProt P43220); test: Functional cAMP formation (HTRF) in HEK-293 clonal cells expressing hGLP-1R, 0.1% bovine casein, without or with 1.0% human serum albumin; design: expressed in transfected cells; settings: for Emax: percent of maximal response to GLP-1(7-36)NH2; for EC50: geometric mean
In short: as §1

[1] = cAMP, 37° C., 0.1% bovine casein (no human serum albumin), geometric mean, read-out: hGCGR EC50, nM (SEM, n)
[2] = HEK293, cAMP, 37° C., 0.1% bovine casein, arithmetic mean, read-out: hGLP-1R Emax, % ± SEM
[3] = HEK293, 0.1% bovine casein and 1.0% human serum albumin, 37° C., percent of maximal response to GIP(1-42)NH2, read-out: hGIPR Emax, % ± SEM
[4] = 0.1% bovine casein and 1.0% human serum albumin, 37° C., geometric mean, read-out: hGCGR EC50, nM (SEM, n)

hGLP-1R, sequence (P43220 24-463): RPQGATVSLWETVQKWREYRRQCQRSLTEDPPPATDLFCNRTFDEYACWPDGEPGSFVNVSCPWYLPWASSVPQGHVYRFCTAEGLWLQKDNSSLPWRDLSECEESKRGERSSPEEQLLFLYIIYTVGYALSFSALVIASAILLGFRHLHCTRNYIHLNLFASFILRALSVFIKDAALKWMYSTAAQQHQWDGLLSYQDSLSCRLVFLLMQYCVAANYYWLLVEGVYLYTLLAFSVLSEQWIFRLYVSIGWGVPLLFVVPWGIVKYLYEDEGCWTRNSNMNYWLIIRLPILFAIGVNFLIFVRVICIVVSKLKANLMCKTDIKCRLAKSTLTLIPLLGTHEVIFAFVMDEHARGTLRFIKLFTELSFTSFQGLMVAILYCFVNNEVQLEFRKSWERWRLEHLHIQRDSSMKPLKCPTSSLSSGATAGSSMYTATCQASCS
T2 sequence (P47871 26-477): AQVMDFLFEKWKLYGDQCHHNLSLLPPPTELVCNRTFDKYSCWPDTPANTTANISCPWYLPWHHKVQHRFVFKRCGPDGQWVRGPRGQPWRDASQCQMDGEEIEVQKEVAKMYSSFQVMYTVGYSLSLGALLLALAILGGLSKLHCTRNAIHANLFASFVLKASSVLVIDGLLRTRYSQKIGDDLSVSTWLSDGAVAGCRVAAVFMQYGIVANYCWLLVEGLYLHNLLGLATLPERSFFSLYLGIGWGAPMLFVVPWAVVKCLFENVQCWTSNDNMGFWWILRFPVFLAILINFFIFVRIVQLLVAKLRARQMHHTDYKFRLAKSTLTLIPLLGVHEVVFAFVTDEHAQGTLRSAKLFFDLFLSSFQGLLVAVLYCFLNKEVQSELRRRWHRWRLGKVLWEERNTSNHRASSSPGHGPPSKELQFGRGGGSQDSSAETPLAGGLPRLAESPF

CC[C@H](C)[C@H](NC(=O)[C@H](CC(C)C)NC(=O)[C@](C)(Cc1ccc(O)cc1)NC(=O)[C@H](CCCCNC(=O)COCCOCCNC(=O)COCCOCCNC(=O)[C@H]1CC[C@H](CNC(=O)CC[C@H](NC(=O)CCCCCCCCCCCCC(=O)O)C(=O)O)CC1)NC(=O)[C@@H](NC(=O)[C@H](Cc1ccccc1)NC(=O)[C@H](CCCN)NC(=O)C(C)(C)NC(=O)[C@H](CCC(N)=O)NC(=O)[C@H](C)NC(=O)[C@H](CCC(N)=O)NC(=O)[C@H](CCCN)NC(=O)[C@H](CC(=O)O)NC(=O)[C@H](CC(C)C)NC(=O)[C@](C)(CC(C)C)NC(=O)[C@@H](NC(=O)C(C)(C)NC(=O)[C@H](Cc1ccncc1)NC(=O)[C@H](CC(=O)O)NC(=O)[C@H](CO)NC(=O)[C@@H](NC(=O)[C@](C)(Cc1ccccc1F)NC(=O)[C@@H](NC(=O)CNC(=O)[C@H](CCC(=O)O)NC(=O)C(C)(C)NC(=O)[C@@H](N)Cc1ccc(O)cc1)[C@@H](C)O)[C@@H](C)O)[C@@H](C)CC)[C@@H](C)CC)C(=O)N[C@@H](CCCCNC(=O)COCCOCCNC(=O)COCCOCCNC(=O)[C@H]1CC[C@H](CNC(=O)CC[C@H](NC(=O)CCCCCCCCCCCCC(=O)O)C(=O)O)CC1)C(=O)NCC(=O)NCC(=O)N1CCC[C@H]1C(=O)N[C@@H](CO)C(=O)N[C@@H](CO)C(=O)NCC(=O)N[C@@H](C)C(=O)N1CCC[C@H]1C(=O)N1CCC[C@H]1C(=O)N1CCC[C@H]1C(=O)N[C@@H](CO)C(N)=O [Example 470]
Emax (hGIPR; HEK293, cAMP, 37° C., 0.1% bovine casein and 1.0% human serum albumin, percent of maximal response to GIP(1-42)NH2, read-out: hGIPR Emax, % ± SEM): 93.9% | EC50 (hGIPR; 37° C., read-out: hGIPR EC50, nM (SEM, n)): 0.0103 nM | EC50 (hGCGR; [1]): > 9950 nM | EC50 (hGCGR; cAMP, 37° C., 0.1% bovine casein and 1.0% human serum albumin, geometric mean (SEM, n), read-out: hGCGR EC50, nM (SEM, n)): > 9950 nM | Emax (hGLP-1R; HEK293, cAMP, 37° C., 0.1% bovine casein and 1.0% human serum albumin, read-out: hGLP-1R Emax, % ± SEM): 113% | Emax (hGLP-1R; [2]): 112% | EC50 (hGLP-1R; cAMP, 37° C., 0.1% bovine casein (no human serum albumin), read-out: hGLP-1R EC50, nM (SEM, n)): 0.127 nM

CC[C@H](C)[C@H](NC(=O)[C@H](CCCN)NC(=O)[C@H](CC(=O)O)NC(=O)[C@H](CC(C)C)NC(=O)[C@](C)(CC(C)C)NC(=O)[C@@H](NC(=O)[C@H](CO)NC(=O)[C@H](Cc1ccc2ccccc2c1)NC(=O)[C@H](CC(=O)O)NC(=O)[C@H](CO)NC(=O)[C@@H](NC(=O)[C@](C)(Cc1ccccc1F)NC(=O)[C@@H](NC(=O)CNC(=O)[C@H](CCC(=O)O)NC(=O)C(C)(C)NC(=O)[C@@H](N)Cc1ccc(O)cc1)[C@@H](C)O)[C@@H](C)O)[C@@H](C)CC)C(=O)N[C@@H](C)C(=O)N[C@@H](CCC(N)=O)C(=O)NC(C)(C)C(=O)N[C@@H](CCCCNC(=O)COCCOCCNC(=O)COCCOCCNC(=O)CC[C@H](NC(=O)CCCCCCCCCOc1ccc(C(=O)O)cc1)C(=O)O)C(=O)N[C@@H](Cc1ccccc1)C(=O)N[C@H](C(=O)N[C@H](CCC(=O)O)C(=O)N[C@@](C)(Cc1ccc(O)cc1)C(=O)N[C@@H](CC(C)C)C(=O)N[C@H](C(=O)N[C@@H](CCCCNC(=O)COCCOCCNC(=O)COCCOCCNC(=O)CC[C@H](NC(=O)CCCCCCCCCOc1ccc(C(=O)O)cc1)C(=O)O)C(=O)NCC(=O)NCC(=O)N1CCC[C@H]1C(=O)N[C@@H](CO)C(=O)N[C@@H](CO)C(=O)NCC(=O)N[C@@H](C)C(=O)N1CCC[C@H]1C(=O)N1CCC[C@H]1C(=O)N1CCC[C@H]1C(=O)N[C@@H](CO)C(N)=O)[C@@H](C)CC)[C@@H](C)CC [Example 284]
Emax (hGIPR; HEK293, read-out: hGIPR Emax, % ± SEM, cAMP, 37° C., 0.1% bovine casein, percent of maximal response to GIP(1-42)NH2, arithmetic mean): 98.3% | EC50 (hGIPR; hGIPR EC50, nM (SEM, n), 37° C.): 0.0389 nM | EC50 (hGCGR; hGCGR EC50, nM (SEM, n), 0.1% bovine casein and 1.0% human serum albumin, 37° C., geometric mean): > 9950 nM | EC50 (hGCGR; hGCGR EC50, nM (SEM, n), cAMP, 37° C., 0.1% bovine casein (no human serum albumin), geometric mean): > 9950 nM | Emax (hGLP-1R; HEK293, read-out: hGLP-1R Emax, % ± SEM, 0.1% bovine casein and 1.0% human serum albumin, 37° C.): 112% | Emax (hGLP-1R; HEK293, read-out: hGLP-1R Emax, % ± SEM, cAMP, 37° C., 0.1% bovine casein, arithmetic mean): 110% | EC50 (hGLP-1R; hGLP-1R EC50, nM (SEM, n), cAMP, 37° C., 0.1% bovine casein (no human serum albumin)): 0.505 nM

CC[C@H](C)[C@H](NC(=O)[C@H](CCCN)NC(=O)[C@H](CC(=O)O)NC(=O)[C@H](CC(C)C)NC(=O)[C@](C)(CC(C)C)NC(=O)[C@@H](NC(=O)[C@H](CO)NC(=O)[C@H](Cc1ccncc1)NC(=O)[C@H](CC(=O)O)NC(=O)[C@H](CO)NC(=O)[C@@H](NC(=O)[C@](C)(Cc1ccccc1F)NC(=O)[C@@H](NC(=O)CNC(=O)[C@H](CCC(=O)O)NC(=O)C(C)(C)NC(=O)[C@@H](N)Cc1ccc(O)cc1)[C@@H](C)O)[C@@H](C)O)[C@@H](C)CC)C(=O)N[C@@H](C)C(=O)N[C@@H](CCC(N)=O)C(=O)NC(C)(C)C(=O)N[C@@H](CCC(=O)O)C(=O)N[C@@H](Cc1ccccc1)C(=O)N[C@H](C(=O)N[C@@H](CCCCNC(=O)COCCOCCNC(=O)COCCOCCNC(=O)CCCCCCCCCCCCC(=O)O)C(=O)N[C@@](C)(Cc1ccc(O)cc1)C(=O)N[C@@H](CC(C)C)C(=O)N[C@H](C(=O)N[C@@H](CCC(=O)O)C(=O)NCC(=O)NCC(=O)N[C@@H](CCCCNC(=O)COCCOCCNC(=O)COCCOCCNC(=O)CCCCCCCCCCCCC(=O)O)C(=O)N[C@@H](CO)C(=O)N[C@@H](CO)C(=O)NCC(=O)N[C@@H](C)C(=O)N1CCC[C@H]1C(=O)N1CCC[C@H]1C(=O)N1CCC[C@H]1C(=O)N[C@@H](CO)C(N)=O)[C@@H](C)CC)[C@@H](C)CC [Example 193]
Emax (hGIPR; [3]): 92.2 ± 0.24% | Emax (hGIPR; HEK293, percent of maximal response to GIP(1-42)NH2, 37° C., 0.1% bovine casein, arithmetic mean, read-out: hGIPR Emax, % ± SEM): 97.2 ± 4.63% | EC50 (hGIPR; incubated at 37° C., read-out: hGIPR EC50, nM (SEM, n)): 0.0201 nM | EC50 (hGCGR; [4]): > 9950 nM | EC50 (hGCGR; cAMP, incubated at 37° C., 0.1% bovine casein (no human serum albumin), geometric mean, read-out: hGCGR EC50, nM (SEM, n)): > 9950 nM | EC50 (hGLP-1R; 0.1% bovine casein and 1.0% human serum albumin, 37° C., read-out: hGLP-1R EC50, nM (SEM, n)): 24.3 nM | EC50 (hGLP-1R; cAMP, incubated at 37° C., 0.1% bovine casein (no human serum albumin), read-out: hGLP-1R EC50, nM (SEM, n)): 0.382 nM

CC[C@H](C)[C@H](NC(=O)[C@H](CCCN)NC(=O)[C@H](CC(=O)O)NC(=O)[C@H](CC(C)C)NC(=O)[C@](C)(CC(C)C)NC(=O)[C@@H](NC(=O)[C@H](CO)NC(=O)[C@H](Cc1ccc(OC)cc1)NC(=O)[C@H](CC(=O)O)NC(=O)[C@H](CO)NC(=O)[C@@H](NC(=O)[C@](C)(Cc1ccccc1F)NC(=O)[C@@H](NC(=O)CNC(=O)[C@H](CCC(=O)O)NC(=O)C(C)(C)NC(=O)[C@@H](N)Cc1ccc(O)cc1)[C@@H](C)O)[C@@H](C)O)[C@@H](C)CC)C(=O)N[C@@H](C)C(=O)N[C@@H](CCC(N)=O)C(=O)NC(C)(C)C(=O)N[C@@H](CCC(=O)O)C(=O)N[C@@H](Cc1ccccc1)C(=O)N[C@H](C(=O)N[C@@H](CCCCNC(=O)COCCOCCNC(=O)COCCOCCNC(=O)CC[C@H](NC(=O)CCCCCCCCCCCCC(=O)O)C(=O)O)C(=O)N[C@@](C)(Cc1ccc(O)cc1)C(=O)N[C@@H](CC(C)C)C(=O)N[C@H](C(=O)N[C@@H](CCCCNC(=O)COCCOCCNC(=O)COCCOCCNC(=O)CC[C@H](NC(=O)CCCCCCCCCCCCC(=O)O)C(=O)O)C(=O)NCC(=O)NCC(=O)N1CCC[C@H]1C(=O)N[C@@H](CO)C(=O)N[C@@H](CO)C(=O)NCC(=O)N[C@@H](C)C(=O)N1CCC[C@H]1C(=O)N1CCC[C@H]1C(=O)N1CCC[C@H]1C(=O)N[C@@H](CO)C(N)=O)[C@@H](C)CC)[C@@H](C)CC [Example 262] (H-Y[Aib]EGT[αMePhe(2-F)]TSDY(Me)SI[αMeL]LD[Orn]IAQ[Aib]EFIK([AEEA-AEEA-γGlu-C14 diacid])[αMeY]LIK([AEEA-AEEA-γGlu-C14 diacid])GGPSSGAPPPS-NH2; N-terminus assumed)
Emax (hGIPR; [3]): 79.7% | Emax (hGIPR; HEK293, cAMP, 37° C., 0.1% bovine casein, percent of maximal response to GIP(1-42)NH2, arithmetic mean, read-out: hGIPR Emax, % ± SEM): 89.8% | EC50 (hGCGR; [4]): > 9950 nM | EC50 (hGCGR; [1]): > 9950 nM | Emax (hGLP-1R; HEK293, 0.1% bovine casein and 1.0% human serum albumin, 37° C., read-out: hGLP-1R Emax, % ± SEM): 115% | Emax (hGLP-1R; [2]): 105%
